ChEMBL document CHEMBL1201862, “PubChem BioAssay data set” (2004)
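These data come from cells grown in 96-well plates and exposed to compound for 48 hours at five concentrations. GI50 is the concentration that inhibits growth by half.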 Calls of active or inactive are those of the source. Rule as the data show it: active = GI50 up to about 1.1 µM and inactive = higher.

Tests used:
Assay in all cases: growth of human tumour cells (NCI), 48 h
[1] = test system: SNB-75
[2] = test system: T47D
[3] = test system: CAKI-1
[4] = test system: RPMI-8226
[5] = test system: RXF 393
[6] = test system: 786-0
[7] = test system: HT-29
[8] = test system: NCI-H226
[9] = test system: SW-620
[10] = test system: SK-MEL-5
[11] = test system: OVCAR-8
[12] = test system: TK-10
[13] = test system: HCT-116
[14] = test system: COLO 205
[15] = test system: HOP-62
[16] = test system: HCC 2998
[17] = test system: NCI-H522
[18] = test system: Malme-3M
[19] = test system: HCT-15

Compound	GI50 [1]	GI50 [2]	GI50 [3]	GI50 [4]	GI50 [5]	GI50 [6]	GI50 [7]	GI50 [8]	GI50 [9]	GI50 [10]	GI50 [11]	GI50 [12]	GI50 [13]	GI50 [14]	GI50 [15]	GI50 [16]	GI50 [17]	GI50 [18]	GI50 [19] [µM]
Cc1ccc(/N=N/N(C)C(=O)C(C)N)cc1 (centres undefined)	> 100 µM (inactive)	> 100 µM (inactive)	> 100 µM (inactive)	16.1 µM (inactive)	> 100 µM (inactive)	> 100 µM (inactive)	> 100 µM (inactive)	> 100 µM (inactive)	8.53 µM (inactive)	> 100 µM (inactive)	> 100 µM (inactive)	> 100 µM (inactive)	> 100 µM (inactive)	> 100 µM (inactive)	> 100 µM (inactive)	> 100 µM (inactive)	60.1 µM (inactive)	> 100 µM (inactive)	> 100
CCCCc1ccc(Nc2nc(Cl)c3[nH]cnc3n2)cc1	33 µM (inactive)	11.2 µM (inactive)	27.2 µM (inactive)	33.2 µM (inactive)	17.1 µM (inactive)	15.7 µM (inactive)	19.9 µM (inactive)	39.6 µM (inactive)	19.2 µM (inactive)	16.7 µM (inactive)	18.4 µM (inactive)	22.8 µM (inactive)	16.3 µM (inactive)	24.2 µM (inactive)	14 µM (inactive)	25.5 µM (inactive)	24.2 µM (inactive)	19.3 µM (inactive)	18
CCOC(=O)CCC(NC(=O)C(N)Cc1ccc(N(CCCl)CCCl)cc1)C(=O)OCC (centres undefined)	0.733 µM (active)	0.446 µM (active)	0.327 µM (active)	1.82 µM (inactive)	0.515 µM (active)	0.475 µM (active)	0.716 µM (active)	6.14 µM (inactive)	1.29 µM (inactive)	1.5 µM (inactive)	0.867 µM (active)	1.31 µM (inactive)	0.375 µM (active)	0.735 µM (active)	1.79 µM (inactive)	0.662 µM (active)	0.285 µM (active)	0.234 µM (active)	0.538
C/C(=N/Nc1nc(C)cc(O)n1)C(=O)O	> 100 µM (inactive)	> 100 µM (inactive)	> 100 µM (inactive)	> 100 µM (inactive)	> 100 µM (inactive)	> 100 µM (inactive)	> 100 µM (inactive)	> 100 µM (inactive)	> 100 µM (inactive)	> 100 µM (inactive)	> 100 µM (inactive)	> 100 µM (inactive)	> 100 µM (inactive)	> 100 µM (inactive)	> 100 µM (inactive)	> 100 µM (inactive)	> 100 µM (inactive)	> 100 µM (inactive)	> 100
CCOC(=O)/C=C/C1OC(C)(C)OC1/C=C/C(=O)OCC (centres undefined)	22.6 µM (inactive)	29.4 µM (inactive)	20.8 µM (inactive)	24.8 µM (inactive)	9.91 µM (inactive)	32.2 µM (inactive)	18.2 µM (inactive)	> 100 µM (inactive)	19.7 µM (inactive)	38.4 µM (inactive)	25.5 µM (inactive)	39.3 µM (inactive)	30.8 µM (inactive)	30.6 µM (inactive)	23.7 µM (inactive)	23.2 µM (inactive)	22.5 µM (inactive)	39.8 µM (inactive)	23.4
N=C(N)N/N=C\c1c(-c2ccccc2)nc2sccn12	12.2 µM (inactive)	14.3 µM (inactive)	16 µM (inactive)	20 µM (inactive)	13.4 µM (inactive)	14.1 µM (inactive)	15.3 µM (inactive)	17.6 µM (inactive)	12.9 µM (inactive)	15.6 µM (inactive)	16.5 µM (inactive)	17.4 µM (inactive)	15.2 µM (inactive)	12 µM (inactive)	15.7 µM (inactive)	4.54 µM (inactive)	12.1 µM (inactive)	16.3 µM (inactive)	15.7
Oc1ccccc1-c1n[nH]c(-c2ccccc2O)n1	> 26.1 µM (inactive)	2.21 µM (inactive)	3.22 µM (inactive)	2.44 µM (inactive)	2.23 µM (inactive)	4.18 µM (inactive)	3.91 µM (inactive)	4.38 µM (inactive)	2.55 µM (inactive)	3.04 µM (inactive)	2.72 µM (inactive)	3.27 µM (inactive)	1.32 µM (inactive)	4.25 µM (inactive)	1.77 µM (inactive)	3.9 µM (inactive)	1.64 µM (inactive)	2.84 µM (inactive)	0.149
Cn1nnc2c(C(N)=S)ncn2c1=O	> 100 µM (inactive)	> 100 µM (inactive)	> 100 µM (inactive)	> 100 µM (inactive)	> 100 µM (inactive)	> 100 µM (inactive)	> 100 µM (inactive)	> 100 µM (inactive)	> 100 µM (inactive)	> 100 µM (inactive)	> 100 µM (inactive)	> 100 µM (inactive)	> 100 µM (inactive)	> 100 µM (inactive)	> 100 µM (inactive)	> 100 µM (inactive)	> 100 µM (inactive)	> 100 µM (inactive)	> 100
C=CC/N=C(\S)Nc1sc2c(c1C(=O)OCC)CC(C)CC2 (centres undefined)	24.3 µM (inactive)	21.4 µM (inactive)	36.1 µM (inactive)	23.1 µM (inactive)	26.5 µM (inactive)	33.9 µM (inactive)	21.5 µM (inactive)	21.6 µM (inactive)	32.8 µM (inactive)	16.3 µM (inactive)	36.7 µM (inactive)	26.3 µM (inactive)	24.8 µM (inactive)	18.6 µM (inactive)	23.1 µM (inactive)	18.5 µM (inactive)	20.6 µM (inactive)	21.3 µM (inactive)	31.8
C/C(=N/NC(=S)N(C)C)c1ccccc1O	6.82 µM (inactive)	14.5 µM (inactive)	25.7 µM (inactive)	> 31.8 µM (inactive)	23 µM (inactive)	6.32 µM (inactive)	3.26 µM (inactive)	> 23.7 µM (inactive)	9.4 µM (inactive)	7.67 µM (inactive)	5.22 µM (inactive)	13.3 µM (inactive)	3.33 µM (inactive)	13.7 µM (inactive)	5.81 µM (inactive)	18.7 µM (inactive)	9.86 µM (inactive)	7.26 µM (inactive)	3.28
O=C1Nc2ccccc2/C1=N/Nc1ccc([N+](=O)[O-])cc1	12.3 µM (inactive)	7.62 µM (inactive)	15.5 µM (inactive)	24.8 µM (inactive)	15 µM (inactive)	13.8 µM (inactive)	61.8 µM (inactive)	19.1 µM (inactive)	33.5 µM (inactive)	35.6 µM (inactive)	11.5 µM (inactive)	24 µM (inactive)	20.7 µM (inactive)	93.5 µM (inactive)	14.6 µM (inactive)	70.5 µM (inactive)	11.1 µM (inactive)	17.4 µM (inactive)	30.3
